Consider eleven compounds from patent publication US7820642B2, “Nandrolone 17β-carbonates” (The United States of America as represented by the …, priority 2005, dated 2010).

Common to all, as to type: in vivo, rat
Data set [1] in a line: Serum levels of dimethandrolone (CDB-1321) and immunoreactive metabolites by radioimmunoassay. Further details: AUC of serum concentration of dimethandrolone and immunoreactive metabolites: unit not given here. The settings on record: for AUC of serum concentration of dimethandrolone and immunoreactive metabolites: n=5, FIG. 9. On the procedure: Serum levels of testosterone and CDB-1321 were determined as follows. Rats from a duration of androgenic activity study were exsanguinated at autopsy, serum prepared by allowing blood to clot at room temperature and the sample frozen for subsequent radioimmunoassay. A radioimmunoassay for the free alcohol, 7a, 11β-dimethyl-19-nortestosterone, was developed using antisera generated in rabbits against the 3-carboxymethyloxime-BSA conjugate and employing the corresponding histamine conjugate for iodination as tracer.

Data set [2] relates to castrate Sprague-Dawley male rats. In words: Androgenic activity, Hershberger test (ventral prostate weight). The settings on record: for Biological activity Potency Ratio: oral in 10% ethanol/sesame oil, methyltestosterone standard = 1.00, FIG. 11. On the procedure:
The androgenic activity was tested as follows (see, Hershberger et al., Proc. Soc. Exptl. Biol. Med., 83: 175-180 (1953)). Immature (approximately 21 day old) male rats of the Sprague-Dawley strain were orchidectomized under METOFANE® anesthesia and randomly assigned to groups of ten animals for each dose level of test material and vehicle controls. Animals were maintained under standard conditions of housing and had free access to food and water. Illumination was controlled for 14-hour periods of light and 10 hours of darkness. Test compounds were dissolved in 10% ethanol/sesame oil and administered by gavage (oral) or subcutaneous injection daily for seven consecutive days starting on the day of surgery. Animals were sacrificed 24 hours after the last dose and the ventral prostate and seminal vesicles excised, cleaned of fat and connective tissue, blotted on moist filter paper and weighed to the nearest 0.1 mg. Ventral prostate weight was used as the endpoint because ventral prostate is the more sensitive organ to androgenic stimulation.
Statistical analysis was performed by conventional methods using a PROPHET data management system operating on SUN Microsystems OS 4.1.1 (see e.g., Bliss, Cl (1952) The Statistics of Bioassay, New York, Academic Press; Hollister, C (1988), Nucleic Acids Research, 16:1873-1875.
Each data point represents the mean (n=10) and standard error of the mean (SEM) prostate weight for each dose level. The potency ratio and 95% confidence index are set forth below.

Data set [3] shares this test system. In words: Duration of androgenic activity after a single subcutaneous injection (ventral prostate weight, AUC). The settings on record: for AUC of ventral prostate weight (duration of androgenic activity): 14 weeks; for AUC of ventral prostate weight (duration of androgenic activity), standards: historical data, 1.2 mg single subcutaneous injection, testosterone undecanoate in aqueous suspension, testosterone enanthate in sesame oil. On the procedure: Duration of androgenic activity was determined as follows. Immature (22 days of age) male rats of the Sprague-Dawley CD strain were orchidectomized under METOFANE anesthesia and randomly assigned to groups of forty or more animals. Animals were maintained under standard conditions of housing and had free access to food and water. Illumination was controlled for 14-hour periods of light and 10 hours of darkness. Animals received a single subcutaneous injection of 0.6 mg of test material in aqueous suspending vehicle (ASV) and/or an oily vehicle (10% ethanol/sesame oil, sesame oil containing 5 mg/ml chlorobutanol as a preservative or ethyl oleate) on the day of surgery. Controls received vehicle alone. Testosterone enanthate in sesame oil was used as a standard. In cases where the test material was not solid at room temperature, i.e., a wax or oil, 10% ethanol/sesame oil or ethyl oleate was used as a vehicle. Five rats from each group were sacrificed at weekly or biweekly intervals and seminal vesicle and ventral prostate glands were excised, cleaned of adherent fat and connective tissue and weighed to the nearest 0.1 mg. Ventral prostate weight was used as the endpoint because it is the more sensitive organ to androgenic stimulation. Area under the curve (AUC) was calculated by the trapezoidal rule.
Each data point represents the mean (n=5) and standard error of the mean (SEM) prostate weight for each time period. […] In FIG. 8, the data for 1.2 mg dose groups are shown together with historical data for testosterone undecanoate in aqueous suspension and testosterone enanthate in sesame oil as standards. Both testosterone undecanoate and testosterone enanthate are commercially available.

The test system of data set [4] is luteinizing hormone (rLH). In words: Serum rLH in castrate male rats. On the procedure: FIG. 14 depicts the serum levels of rLH as a function of time for groups 2 and 4 of the animals. Serum rLH were measured in the blood from castrate male rats following fourteen daily 12 mg/kg oral doses of CDB-4719A (dimethandrolone 17β-decylcarbonate, filled circles, group 2) or CDB-4521C (dimethandrolone 17β-undecanoate, open triangles, group 4) in 10% ethanol/sesame oil on days 0-13. Samples from weeks −1 to 6 or from weeks 7 to 9 and repeats were assayed as described in the protocols MEL-480AD using [^125I]-rLH or MEL-480AE, AG using [^125I]-rLH. The limit of detection shown as dotted line, or EC90, was the mean of 0.13, 0.14, or 0.16 in the first assay and 0.17, 0.22, or 0.21 ng/ml in the second series of assays based on 200 μl of serum per tube.
FIG. 15 depicts the serum levels of rLH as a function of time for groups 1 and 3 of the animals. Serum rLH were measured in the blood from castrate male rats following a single 12 mg/kg subcutaneous injection of CDB-4719A (dimethandrolone 17β-decylcarbonate, filled circles, group 1) or CDB-4521C (dimethandrolone 17β-undecanoate, open triangles, group 3) in an aqueous suspending vehicle on day 0. Samples from weeks −1 to 6 or from weeks 7 to 22 and repeats were assayed as described in the protocols MEL-480AD using [^125I]-rLH or MEL-480AE, AG, AH using [^125I]-rLH. The limit of detection shown as dotted line, or EC90, was the mean of 0.13, 0.14, or 0.16 in the first assay and 0.17, 0.22, or 0.21 ng/ml in the second series of assays based on 200 μl of serum per tube.
Carbonates of the invention, in embodiments, can be used to suppress luteinizing hormone in a mammal for extended periods of time. […] CDB-4719A (dimethandrolone 17β-decylcarbonate) was administered to castrate male rats, daily at 12 mg/kg oral doses, and CDB-4521C (dimethandrolone 17β-undecanoate) was administered in 10% ethanol/sesame oil, on days 0-13. […] This observation could have advantageous clinical implications, for example, in obtaining sustained suppression of the luteinizing hormone or hormone replacement therapy. In addition, this could have an advantage by providing a facile treatment using oral compositions such as tablets or capsules of the carbonates of the invention in suppressing hormone levels. Such treatment can be advantageous relative to a treatment involving parenteral (e.g., subcutaneous) administration of a drug such as the ester drug. Patient compliance is better with oral formulations than injections.
FIG. 15 provides a comparison between CDB-4719A (dimethandrolone 17β-decylcarbonate) and CDB-4521C (dimethandrolone 17β-undecanoate). A single dose (12 mg/kg) of the compound was administered to castrate male rats by subcutaneous injection in an aqueous suspending vehicle on day 0. The serum rLH concentration was monitored over a 22-week period and beyond.

The mark [5] stands for this setting: single subcutaneous injection of 0.6 mg in aqueous suspending vehicle.
Setting [6] is: single subcutaneous injection of 1.2 mg in aqueous suspending vehicle.
[7] abbreviates: oral, daily for 7 days in 10% ethanol/sesame oil, CDB 110 (methyltestosterone) = 1.000 assigned, FIG. 5, ranges did not pass all significance tests.
[8] abbreviates: subcutaneous injection, daily for 7 days, CBD-111 (testosterone) = 1.000 assigned, FIG. 6, footnote 2 values did not pass all significance tests.
Where [9] appears, read: fourteen daily 12 mg/kg oral doses in 10% ethanol/sesame oil, days 0-13, FIG. 14.

Regarding `COC(=O)O[C@H]1CC[C@H]2[C@H]3[C@H]([C@@H](C)C[C@]12C)[C@H]1CCC(=O)C=C1C[C@H]3C` [CDB-4718, 17β-Methoxycarbonyloxy-7α,11β-dimethylestr-4-en-3-one], the “AUC of serum concentration of dimethandrolone and immunoreactive metabolites” value in data set [1] (setting [5]) stood at 2848; in data set [1] (setting [6]) it was 3336. For the same compound, the “Androgenic activity Potency Ratio” value is “about two and one-half times” in data set [2] (setting [7]); 2.609^1 in data set [2] (oral, daily for 7 days in 10% ethanol/sesame oil, CDB 110 (methyltestosterone) = 1.000 assigned, FIG. 5, ranges did not pass all significance tests, listed as 4718); 10.4-47.5 in data set [2] (setting [8]); 10.4-47.5^1,2 in data set [2] (subcutaneous injection, daily for 7 days, CBD-111 (testosterone) = 1.000 assigned, FIG. 6, footnote 2 values did not pass all significance tests, listed as 4718). Moreover, the “Duration of androgenic activity (in words)” value in data set [3] (single subcutaneous injection in aqueous vehicle) is on record as “short duration of action”. The “AUC of ventral prostate weight (duration of androgenic activity)” value is 581 mg·week in data set [3] (setting [5]) and 789 mg·week in data set [3] (setting [6]).
Turning to `C[C@@H]1CC2=CC(=O)CC[C@@H]2[C@@H]2[C@@H]1[C@@H]1CC[C@H](O)[C@@]1(C)C[C@@H]2C` [CDB-1321, 7a, 11β-dimethyl-19-nortestosterone, reference compound], in data set [1] (first 3 weeks, limit of detection 63 pg/ml), the “Serum levels of the free alcohol after giving the free alcohol itself” value is reported as “barely above the limit of detection”.
As to `CCCCCCC(=O)O[C@H]1CC[C@H]2[C@@H]3CCC4=CC(=O)CC[C@]4(C)[C@H]3CC[C@]12C` [CDB-112, testosterone enanthate, reference compound], the “AUC of ventral prostate weight (duration of androgenic activity), standards” value in data set [3] was found to be 760 mg·week.
Regarding `CCCCCCCCCCOC(=O)O[C@H]1CC[C@H]2[C@@H]3CCC4=CC(=O)CC[C@@H]4[C@H]3[C@@H](C)C[C@]12C` [CDB-4757, 11β-Methyl-17β-decyloxycarbonyloxyestr-4-en-3-one], the “Biological activity Potency Ratio” value in data set [2] is given as 1.96.
Regarding `CCCCCCCCCCC(=O)O[C@H]1CC[C@H]2[C@H]3[C@H]([C@@H](C)C[C@]12C)[C@H]1CCC(=O)C=C1C[C@H]3C` [CDB-4521C, dimethandrolone 17β-undecanoate, reference compound], in data set [4] (setting [9]), the “Serum rLH after administration was discontinued” value is “bounced back and increased beyond the pretreatment level”; the “Serum rLH during administration” value is “remained suppressed”. The “Serum rLH up to 16 weeks post administration” value in data set [4] (single 12 mg/kg subcutaneous injection in aqueous suspending vehicle on day 0, FIG. 15) is reported as “remains suppressed”. Also, the “Serum rLH after 16 weeks” value in data set [4] (single 12 mg/kg subcutaneous injection in aqueous suspending vehicle on day 0, monitored over 22 weeks, FIG. 15) is on record as “rose after 16 weeks”.
As for `CCCCCCCCCC(=O)OC1CCC2C3C(C)CC4=CC(=O)CCC4C3C(C)CC12C` (stereo not drawn) [CDB-4756, dimethandrolone decanoate, reference compound], in data set [2], the “Biological activity Potency Ratio” value is 2.13-7.56.
Turning to `CCCCCCCCCCCCOC(=O)OC1CC[C@H]2[C@@H]3CCC4=CC(=O)CC[C@@H]4[C@H]3[C@@H](C)C[C@]12C` (stereo partly drawn) [CDB-4754, 11β-Methyl-17-dodecyloxycarbonyloxy estr-4-en-3-one], the “AUC of ventral prostate weight (duration of androgenic activity)” value in data set [3] (setting [5]) turned out to be 564 mg·week; in data set [3] (setting [6]), 974 mg·week.
Taken in the same sequence, the figures for `CC1C[C@@]2(C)C(=CC[C@@H]2OC(=O)OC23CC4CC(CC(C4)C2)C3)[C@H]2[C@H]1[C@H]1CCC(=O)C=C1C[C@H]2C` (stereo partly drawn) [CDB-4750A, 17β-Adamantyloxycarbonyloxy-7α,11-dimethylestra-4,14-dien-3-one] were 326 mg·week and 759 mg·week.
Take `CCCCCCOC(=O)O[C@H]1CC[C@H]2[C@H]3[C@H]([C@@H](C)C[C@]12C)[C@H]1CCC(=O)C=C1C[C@H]3C` [CDB-4731, 17β-Hexyloxycarbonyloxy-7α,11β-dimethylestr-4-en-3-one]: the “Androgenic activity Potency Ratio” value in data set [2] (setting [7]) is on record as 1.18-3.27; in data set [2] (oral, daily for 7 days in 10% ethanol/sesame oil, CDB 110 (methyltestosterone) = 1.000 assigned, FIG. 5, ranges did not pass all significance tests, listed as 4731) it was 1.18-3.27^1,2; in data set [2] (setting [8]), 32; in data set [2] (subcutaneous injection, daily for 7 days, CBD-111 (testosterone) = 1.000 assigned, FIG. 6, footnote 2 values did not pass all significance tests, listed as 4731) it was 32.0^1,2.
For the compound `C[C@]12CCC(=O)C=C1CC[C@@H]1[C@@H]2CC[C@@]2(C)[C@H]1CC[C@]2(C)O` [CDB-110B, methyltestosterone, reference compound], the “Biological activity Potency Ratio” value in data set [2] is reported as 1.00 (assigned).
For the compound `CCCCCCCCCCC(=O)O[C@H]1CC[C@H]2[C@@H]3CCC4=CC(=O)CC[C@]4(C)[C@H]3CC[C@]12C` [CDB-3122E, testosterone undecanoate, reference compound], the “AUC of ventral prostate weight (duration of androgenic activity), standards” value in data set [3] was 494 mg·week.
